Experimental data reported in PubChem BioAssay (NCI).
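How tested: cells in 96-well plates exposed to compound for 48 hours at five concentrations. The concentration for 50% growth inhibition is given as GI50. TGI: total growth inhibition.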

Assays:
Assay in all cases: NCI tumour cell line growth inhibition, 48 h
[1] = tested on: UO-31 renal
[2] = tested on: LOX IMVI melanoma
[3] = tested on: 786-0 renal
[4] = tested on: OVCAR-8 ovarian
[5] = tested on: HOP-92 NSCLC
[6] = tested on: HT29 colon
[7] = tested on: SNB-75 CNS
[8] = tested on: NCI-H460 lung
[9] = tested on: SW-620 colon
[10] = tested on: M14 melanoma
[11] = tested on: HCT-116 colon
[12] = tested on: SK-MEL-5 melanoma
[13] = tested on: RXF 393 renal
[14] = tested on: NCI-H226 lung
[15] = tested on: CAKI-1 renal
[16] = tested on: PC-3 prostate
[17] = tested on: NCI-H23 lung
[18] = tested on: UACC-62 melanoma
[19] = tested on: BT-549 breast
[20] = tested on: MALME-3M melanoma
[21] = tested on: OVCAR-5 ovarian
[22] = tested on: DU-145 prostate
[23] = tested on: SR leukemia
[24] = tested on: HL-60(TB) leukemia
[25] = tested on: HCC-2998 colon
[26] = tested on: CCRF-CEM leukemia
[27] = tested on: RPMI-8226 leukemia
[28] = tested on: MOLT-4 leukemia
[29] = tested on: TK-10 renal
[30] = tested on: SF-539 CNS
[31] = tested on: A498 renal
[32] = tested on: SK-MEL-28 melanoma
[33] = tested on: NCI-H522 lung
[34] = tested on: SF-295 CNS
[35] = tested on: SK-MEL-2 melanoma
[36] = tested on: HS 578T breast
[37] = tested on: IGROV1 ovarian
[38] = tested on: SK-OV-3 ovarian
[39] = tested on: MDA-MB-231 breast
[40] = tested on: MCF7 breast
[41] = tested on: ACHN renal
[42] = tested on: NCI/ADR-RES ovarian
[43] = tested on: HCT-15 colon
[44] = tested on: KM12 colon
[45] = tested on: SF-268 CNS
[46] = tested on: MDA-MB-435
[47] = tested on: OVCAR-3 ovarian
[48] = tested on: COLO 205 colon
[49] = tested on: HOP-62 NSCLC
[50] = tested on: SN12C renal
[51] = tested on: OVCAR-4 ovarian
[52] = tested on: U251 CNS
[53] = tested on: K-562 leukemia
[54] = tested on: T-47D breast
[55] = tested on: A549 NSCLC
[56] = tested on: UACC-257 melanoma
[57] = tested on: SNB-19 CNS

Structure (SMILES): Cn1c(=O)c(Oc2ccccc2)cc2cnc(NC3CCOCC3)nc21
- GI50 [1]: > 25 µM
- TGI [1]: > 25 µM
- GI50 [2]: > 25 µM
- TGI [2]: > 25 µM
- GI50 [3]: > 25 µM
- TGI [3]: > 25 µM
- GI50 [4]: > 25 µM
- TGI [4]: > 25 µM
- GI50 [5]: > 25 µM
- TGI [5]: > 25 µM
- GI50 [6]: > 25 µM
- TGI [6]: > 25 µM
- GI50 [7]: > 25 µM
- TGI [7]: > 25 µM
- GI50 [8]: > 25 µM
- TGI [8]: > 25 µM
- GI50 [9]: > 25 µM
- TGI [9]: > 25 µM
- GI50 [10]: > 25 µM
- TGI [10]: > 25 µM
- GI50 [11]: > 25 µM
- TGI [11]: > 25 µM
- GI50 [12]: > 25 µM
- TGI [12]: > 25 µM
- GI50 [13]: > 25 µM
- TGI [13]: > 25 µM
- GI50 [14]: > 25 µM
- TGI [14]: > 25 µM
- GI50 [15]: > 25 µM
- TGI [15]: > 25 µM
- GI50 [16]: > 25 µM
- TGI [16]: > 25 µM
- GI50 [17]: > 25 µM
- TGI [17]: > 25 µM
- GI50 [18]: > 25 µM
- TGI [18]: > 25 µM
- GI50 [19]: > 25 µM
- TGI [19]: > 25 µM
- GI50 [20]: > 25 µM
- TGI [20]: > 25 µM
- GI50 [21]: > 25 µM
- TGI [21]: > 25 µM
- GI50 [22]: > 25 µM
- TGI [22]: > 25 µM
- GI50 [23]: > 25 µM
- TGI [23]: > 25 µM
- GI50 [24]: > 25 µM
- TGI [24]: > 25 µM
- GI50 [25]: > 25 µM
- TGI [25]: > 25 µM
- GI50 [26]: > 25 µM
- TGI [26]: > 25 µM
- GI50 [27]: > 25 µM
- TGI [27]: > 25 µM
- GI50 [28]: > 25 µM
- TGI [28]: > 25 µM
- GI50 [29]: > 25 µM
- TGI [29]: > 25 µM
- GI50 [30]: > 25 µM
- TGI [30]: > 25 µM
- GI50 [31]: > 25 µM
- TGI [31]: > 25 µM
- GI50 [32]: > 25 µM
- TGI [32]: > 25 µM
- GI50 [33]: > 25 µM
- TGI [33]: > 25 µM
- GI50 [34]: > 25 µM
- TGI [34]: > 25 µM
- GI50 [35]: > 25 µM
- TGI [35]: > 25 µM
- GI50 [36]: > 25 µM
- TGI [36]: > 25 µM
- GI50 [37]: > 25 µM
- TGI [37]: > 25 µM
- GI50 [38]: > 25 µM
- TGI [38]: > 25 µM
- GI50 [39]: > 25 µM
- TGI [39]: > 25 µM
- GI50 [40]: > 25 µM
- TGI [40]: > 25 µM
- GI50 [41]: > 25 µM
- TGI [41]: > 25 µM
- GI50 [42]: > 25 µM
- TGI [42]: > 25 µM
- GI50 [43]: > 25 µM
- TGI [43]: > 25 µM
- GI50 [44]: > 25 µM
- TGI [44]: > 25 µM
- GI50 [45]: > 25 µM
- TGI [45]: > 25 µM
- GI50 [46]: > 25 µM
- TGI [46]: > 25 µM
- GI50 [47]: > 25 µM
- TGI [47]: > 25 µM
- GI50 [48]: > 25 µM
- TGI [48]: > 25 µM
- GI50 [49]: > 25 µM
- TGI [49]: > 25 µM
- GI50 [50]: > 25 µM
- TGI [50]: > 25 µM
- GI50 [51]: > 25 µM
- TGI [51]: > 25 µM
- GI50 [52]: > 25 µM
- TGI [52]: > 25 µM
- GI50 [53]: > 25 µM
- TGI [53]: > 25 µM
- GI50 [54]: > 25 µM
- TGI [54]: > 25 µM
- GI50 [55]: > 25 µM
- TGI [55]: > 25 µM
- GI50 [56]: > 25 µM
- TGI [56]: > 25 µM
- GI50 [57]: > 25 µM
- TGI [57]: > 25 µM
